In PMC2841005 (Developmental and comparative immunology, 2010):

Assays:
Format in all cases: cell-based
[1] = test system: Gram-negative and Gram-positive bacterial strains; assay: Antibacterial activity against the panel of strains, broth micro-dilution assay
bacteria = assay: Antibacterial test of the first synthetic 27-residue repeat peptide; settings: data not shown
E. coli O157:H7 = assay: MIC, broth micro-dilution assay

Sequence | Antibacterial activity against the bacterial strains tested (in words) [1] | Killing of bacteria (in words) (bacteria) | Activity against E. coli O157:H7 (in words) (E. coli O157:H7)
SVETLASQEHLSSLPMDSQETLLRGT [LP4A] | inactive |  | 
SVETLASQEHLSSLPMDSQETLLRGTR [LP4] | no activity |  | 
RSVETLASQEHLSSLPMDSQETLLRGT |  | did not kill any bacteria | 
ESGNEPLWLYQGDNIPKAPSTAEHPFLPSIIDDVKFNPDRRYA [LP2A] | did not affect the bacterial growth |  | 
SLGTPDHYHGGRHSISRGSQSTGPTHPGYNRRNA [LP3A] | inactive |  | inactive
SLGTPDHYHGGRHSISRGSQSTGPTHPGYNRRNAR [LP3] | active against bacteria |  | low activity
ESGNEPLWLYQGDNIPKAPSTAEHPFLPSIIDDVKFNPDRRYAR [LP2] | did not exhibit antimicrobial activity |  | 
